{"source": "patent US20100297020A1", "about": "“PHOSPHORYLATED AND PHOSPHONATED PYRONE ANALOGS FOR THERAPEUTIC TREATMENT” (Limerick Biopharma, Inc., priority 2008, published 2010)", "key": {"ZDF rats": {"tested_on": "ZDF rats", "experiment": "Pancreas histopathology, insulin staining and TUNEL in ZDF rats", "assay_type": "in vivo", "from_the_text": "Pancreas samples from Example 26 are stored in 10% NBF and used in this study. All tissue samples were processed through graded alcohols, cleared in xylene and infiltrated and embedded into paraffin. For the pancreas four 4 micron sections were cut, one was stained with Hematoxylin and Eosin for histopathology, two were immunohistochemically stained with an antibody to insulin to determine beta cell mass and one was stained for apoptosis with the tunel technique.\nThe insulin staining procedure was performed as follows: Endogenous peroxidase activity was inhibited by incubation in 3% hydrogen peroxide. Non-specific staining was blocked with DAKO Protein Block Serum-Free (Dako, Carpinteria, Calif.). Insulin positive cells were immunohistochemically stained with a polyclonal guinea pig anti-swine insulin antibody at room temperature for 30 minutes (Dako, Carpinteria, Calif.). After incubation with primary antibody, the tissue sections were sequentially incubated with Envision+ HRP Rabbit (Dako, Carpinteria, Calif.). Staining was developed with Liquid DAB+ (Dako, Carpinteria, Calif.) and counterstained with hematoxylin.\nPancreas samples were stained for apoptosis as follows: 4 micron sections were cut and stained for TUNEL utilizing the following kit In Situ Cell Death Detection Kit, AP (Roche Applied Science, catalog 11 684 809 910)."}, "AdenosineA1": {"target": "T1, AdenosineA1 (Homo sapiens, UniProt P30542)", "T1 sequence (P30542 1-326)": "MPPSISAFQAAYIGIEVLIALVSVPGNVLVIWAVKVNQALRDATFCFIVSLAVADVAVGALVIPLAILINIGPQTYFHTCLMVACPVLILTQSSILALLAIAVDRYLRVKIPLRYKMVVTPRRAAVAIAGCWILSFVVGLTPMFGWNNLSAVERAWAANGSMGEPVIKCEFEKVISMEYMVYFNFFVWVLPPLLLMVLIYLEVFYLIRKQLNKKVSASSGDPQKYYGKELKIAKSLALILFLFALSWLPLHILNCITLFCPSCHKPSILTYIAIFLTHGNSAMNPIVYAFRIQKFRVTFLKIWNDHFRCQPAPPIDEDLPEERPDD", "experiment": "AdenosineA1 GTPγS functional assay", "assay_type": "biochemical", "conditions": "10 μM; compound may be / can be tested", "procedure": "(§1) The compound is additionally tested in AdenosineA1, AdrenergicA2A, DopamineD25, Histamine H1-, and μ-Opiate GTPγS functional assays using a concentration of 10 μM.\n(§2) The compound may be additionally tested in AdenosineA1, AdrenergicA2A, DopamineD25, Histamine H1-, and μ-Opiate GTPγS functional assays using a concentration of 10 μM.\n(§3) The compound can be additionally tested in AdenosineA1, AdrenergicA2A, DopamineD25, Histamine H1-, and μ-Opiate GTPγS functional assays using a concentration of 10 μM."}, "[1]": {"tested_on": "rats treated with tacrolimus", "experiment": "Blood glucose in rats co-administered with tacrolimus", "assay_type": "in vivo", "conditions": "tacrolimus 0.5 mg/kg i.p. day 1-25; Compound 2 114 mg/kg i.p. day 11-25"}, "AdrenergicA2A": {"target": "T2, AdrenergicA2A (Homo sapiens, UniProt P08913)", "T2 sequence (P08913 1-465)": "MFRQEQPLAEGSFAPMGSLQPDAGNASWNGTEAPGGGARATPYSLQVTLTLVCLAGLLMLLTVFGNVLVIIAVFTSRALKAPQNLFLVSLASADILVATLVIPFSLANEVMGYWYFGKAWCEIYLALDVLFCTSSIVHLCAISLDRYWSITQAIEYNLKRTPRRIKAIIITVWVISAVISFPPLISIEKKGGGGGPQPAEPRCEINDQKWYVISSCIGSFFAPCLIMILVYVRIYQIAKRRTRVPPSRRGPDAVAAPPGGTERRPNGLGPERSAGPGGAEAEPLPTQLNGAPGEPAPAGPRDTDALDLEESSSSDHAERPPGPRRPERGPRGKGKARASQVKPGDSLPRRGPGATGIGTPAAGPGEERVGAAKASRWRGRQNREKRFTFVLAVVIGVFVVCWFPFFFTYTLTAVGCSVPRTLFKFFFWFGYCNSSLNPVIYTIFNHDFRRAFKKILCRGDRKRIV", "experiment": "AdrenergicA2A GTPγS functional assay", "assay_type": "biochemical", "conditions": "10 μM; compound may be / can be tested", "procedure": "as §1, §2, §3"}, "[2]": {"experiment": "Stability in water at about pH 8", "conditions": "water at about pH 8, 24 hours, ambient temperature", "method": "Quercetin-3′-O-phosphate is dissolved in water at about pH 8.\nFisetin-3′-O-phosphate is dissolved in water at about pH 8.\nQuercetin-3′-O-methylphosphonate (Compound 2) is dissolved in water at about pH 8."}, "[3]": {"tested_on": "BB19 cells, human BCECs (brain capillary endothelial cells)", "experiment": "Cyclosporin uptake assay", "assay_type": "cell-based", "conditions": "0.1 μM test compound; 1 hour incubation; 0.1 µM", "procedure": "(§4) BB19 cells, human BCECs (brain capillary endothelial cells) immortalized with the E6E7 genes of human papilloma virus, were kindly provided from Jacques G. Prudhomme, Department of Biology, University of California, Riverside, U.S.A. The cells were cultured as monolayer culture in Amniomax™-C100 basal medium (catalog number 17001-157) with Amniomax™-C100 supplement (catalog number 12556-049) (Invitrogen, Basel, CH).\n(§5) Cells were seeded onto culture surfaces precoated with 10 μg/cm^2 rat tail collagen type I (BD Bioscience, Allschwil, CH) at a density of approximately 50′000 cells/cm^2 and were cultured in an incubator at 37° C. with 5% CO2, 95% fresh air and saturated humidity. For uptake assays, cells were seeded on precoated 96-well plates. Assays were performed at confluency, after 6 days in culture.\n(§6) BB19 cells were seeded 50′000 cells/cm^2 on 96-well plates (Falcon) and incubated under condition described above for 6 days. Before starting the assay, cells were washed 2 times with pre-warmed Dulbecco's MEM with Glutamax-I (catalog number 61965) (Invitrogen AG, Basel, CH), supplemented with 1% non essential amino acids, 1% sodium pyruvate, 50 μg/ml gentamycin (Invitrogen AG) (DMEM). Cells were then incubated for 15 min at 37° C. and 120 rpm in DMEM with or without the specified concentrations of test compounds under investigation. After this pre-incubation, cells were incubated in DMEM containing [propyl-3H]-dihydro-FK506 (3H-tacrolimus, 1 μCi/ml, 34 nM) and with or without the specified concentrations of test compounds for 1 hour at 37° C. and 120 rpm. During this 1-hour incubation period, influx and efflux of the substrate, ^3H-tacrolimus, occur. After the 1-hour incubation period, assay was terminated by placing the assay plate on ice and washing the cells twice with ice-cold DMEM. Determination of cell associated ^3H-tacrolimus was performed by addition of Insta Gel and scintillation liquid to trypsinized cells followed by analysis on a scintillation counter (Packard TriCarb2000, Can berra Packard S.A.). The results are expressed as: % of control=100×[^3H-tacrolimus conc. with test compound]/[^3H-tacrolimus conc. with vehicle]\nThe cyclosporin uptake assay was performed similarly as described above for tacrolimus uptake assay except that ^3H-cyclosporin was used in place of ^3H-tacrolimus."}, "[4]": {"tested_on": "BB19 cells, human BCECs (brain capillary endothelial cells)", "experiment": "Tacrolimus uptake assay", "assay_type": "cell-based", "conditions": "Endothelial cell, 1 h, 0.1 μM test compound, 1 hour incubation, 3H-tacrolimus 34 nM, read-out: cell associated ^3H-tacrolimus uptake, % of control", "procedure": "as §4, §5, §6"}, "[5]": {"conditions": "following four weeks of daily treatment"}}}
{"compound": "O=c1c(O)c(-c2ccc(O)c(OCP(=O)(O)O)c2)oc2cc(O)cc(O)c12", "note": "[Compound 2, Quercetin-3′-O-methylphosphonic acid]", "values": [{"measurement": "islet cell apoptosis", "setting": "ZDF rats; TUNEL, following four weeks of daily treatment", "value": "decreases in islet cell apoptosis"}, {"measurement": "decrease in islet vacuolar degeneration (inhibition)", "setting": "ZDF rats; [5]", "value": 43, "unit": "%"}, {"measurement": "decrease in pancreatic inflammation (inhibition)", "setting": "ZDF rats; [5]", "value": 60, "unit": "%"}, {"measurement": "ratio of insulin positive islet cells to pancreas cells", "setting": "ZDF rats; insulin immunohistochemistry", "value": "significantly increased"}, {"measurement": "antagonist activity in the AdenosineA1 assay", "setting": "AdenosineA1", "value": 48, "unit": "%"}, {"measurement": "blood glucose level (tacrolimus induced hyperglycemia)", "setting": "[1]", "value": "attenuate tacrolimus induced hyperglycemia"}, {"measurement": "inhibition in the AdrenergicA2A assay", "setting": "AdrenergicA2A", "value": "marked negative inhibition"}, {"measurement": "degradation seen by NMR", "setting": "[2]", "value": "no degradation"}, {"measurement": "cell associated ^3H-cyclosporin uptake, % of control", "setting": "[3]", "value": "54 % of control"}, {"measurement": "activity at 0.1 µM", "setting": "[4]", "value": 51, "unit": "%"}]}
